Columns and labels:
PC-3 = assay: Growth inhibition of human PC3 cells assessed as cell growth at 100 uM incubated for 48 hrs by sulforhodamine B assay relative to control; format: functional; conditions: PC-3, 48 h, read-out: Activity
ACHN = assay: Growth inhibition of human ACHN cells assessed as cell growth at 0.01 uM incubated for 48 hrs by sulforhodamine B assay relative to control; format: functional; conditions: read-out: Activity
RXF 393 = assay: Growth inhibition of human RXF393 cells assessed as cell growth at 1 uM incubated for 48 hrs by sulforhodamine B assay relative to control; format: functional; conditions: RXF 393, 48 h, read-out: Activity
SF-295 = assay: Growth inhibition of human SF295 cells assessed as cell growth at 1 uM incubated for 48 hrs by sulforhodamine B assay relative to control; format: functional; conditions: SF-295, 48 h, read-out: Activity
BT-549 [1] = assay: Growth inhibition of human BT549 cells assessed as cell growth at 0.01 uM incubated for 48 hrs by sulforhodamine B assay relative to control; format: functional; conditions: BT-549, 48 h, read-out: Activity
OVCAR-4 = assay: Growth inhibition of human OVCAR4 cells assessed as cell growth at 0.1 uM incubated for 48 hrs by sulforhodamine B assay relative to control; format: functional; conditions: OVCAR-4, 48 h, read-out: Activity
SNB-19 = assay: Growth inhibition of human SNB19 cells assessed as cell growth at 100 uM incubated for 48 hrs by sulforhodamine B assay relative to control; format: functional; conditions: SNB-19, 48 h, read-out: Activity
NCI-H322M = assay: Growth inhibition of human NCI-H322M cells assessed as cell growth at 0.01 uM incubated for 48 hrs by sulforhodamine B assay relative to control; format: functional; conditions: read-out: Activity
HL-60(TB) [2] = assay: Growth inhibition of human HL-60(TB) cells assessed as cell growth at 0.01 uM incubated for 48 hrs by sulforhodamine B assay relative to control; format: functional; conditions: HL-60, 48 h, read-out: Activity
MDA-MB-435 = assay: Growth inhibition of human MDA-MB-435 cells assessed as cell growth at 1 uM incubated for 48 hrs by sulforhodamine B assay relative to control; format: functional; conditions: MDA-MB-435, 48 h, read-out: Activity
HL-60(TB) [3] = assay: Growth inhibition of human HL-60(TB) cells assessed as cell growth at 100 uM incubated for 48 hrs by sulforhodamine B assay relative to control; format: functional; conditions: HL-60, 48 h, read-out: Activity
MDA-MB-231 [4] = assay: Growth inhibition of human MDA-MB-231 cells incubated for 48 hrs by sulforhodamine B assay; format: functional, cell-based; conditions: MDA-MB-231, 48 h
CAKI-1 = assay: Growth inhibition of human Caki1 cells incubated for 48 hrs by sulforhodamine B assay; format: functional, cell-based; conditions: CAKI-1, 48 h
BT-549 [5] = assay: Growth inhibition of human BT549 cells incubated for 48 hrs by sulforhodamine B assay; format: functional, cell-based; conditions: BT-549, 48 h
NCI-H460 = assay: Growth inhibition of human NCI-H460 cells incubated for 48 hrs by sulforhodamine B assay; format: functional, cell-based; conditions: NCI-H460, 48 h
T47D = assay: Growth inhibition of human T47D cells assessed as cell growth at 1 uM incubated for 48 hrs by sulforhodamine B assay relative to control; format: functional; conditions: read-out: Activity
786-0 [6] = assay: Growth inhibition of human 786-0 cells incubated for 48 hrs by sulforhodamine B assay; format: functional, cell-based; conditions: 786-0, 48 h
MDA-MB-468 = assay: Growth inhibition of human MDA-MB-468 cells assessed as cell growth at 0.1 uM incubated for 48 hrs by sulforhodamine B assay relative to control; format: functional; conditions: MDA-MB-468, 48 h, read-out: Activity
SW-620 = assay: Growth inhibition of human SW620 cells assessed as cell growth at 0.1 uM incubated for 48 hrs by sulforhodamine B assay relative to control; format: functional; conditions: SW-620, 48 h, read-out: Activity
SN12C = assay: Growth inhibition of human SN12C cells incubated for 48 hrs by sulforhodamine B assay; format: functional, cell-based
RPMI-8226 = assay: Growth inhibition of human RPMI8226 cells assessed as cell growth at 0.1 uM incubated for 48 hrs by sulforhodamine B assay relative to control; format: functional; conditions: RPMI-8226, 48 h, read-out: Activity
MCF7 = assay: Growth inhibition of human MCF7 cells assessed as cell growth at 100 uM incubated for 48 hrs by sulforhodamine B assay relative to control; format: functional; conditions: MCF7, 48 h, read-out: Activity
OVCAR-5 = assay: Growth inhibition of human OVCAR5 cells incubated for 48 hrs by sulforhodamine B assay; format: functional, cell-based; conditions: OVCAR-5, 48 h
NCI-H226 = assay: Growth inhibition of human NCI-H226 cells assessed as cell growth at 0.1 uM incubated for 48 hrs by sulforhodamine B assay relative to control; format: functional; conditions: NCI-H226, 48 h, read-out: Activity
HL-60(TB) [7] = assay: Growth inhibition of human HL-60(TB) cells incubated for 48 hrs by sulforhodamine B assay; format: functional, cell-based; conditions: HL-60, 48 h
786-0 [8] = assay: Growth inhibition of human 786-0 cells assessed as cell growth at 0.01 uM incubated for 48 hrs by sulforhodamine B assay relative to control; format: functional; conditions: 786-0, 48 h, read-out: Activity
HCC 2998 = assay: Growth inhibition of human HCC2998 cells assessed as cell growth at 0.1 uM incubated for 48 hrs by sulforhodamine B assay relative to control; format: functional; conditions: HCC 2998, 48 h, read-out: Activity
MDA-MB-231 [9] = assay: Growth inhibition of human MDA-MB-231 cells assessed as cell growth at 100 uM incubated for 48 hrs by sulforhodamine B assay relative to control; format: functional; conditions: MDA-MB-231, 48 h, read-out: Activity
[10] = read-out: LC50 (the source's name)
[11] = read-out: pLC50 (the source's name) (converted)

With COc1cc(Cl)cc(-c2nn(-c3cccc(NC(=O)c4ccc(N5CCOCC5)c(C(F)(F)F)c4)c3)cc2-c2ccncc2)c1 the growth at 100 µM (PC-3) was 19%, the growth at 0.01 µM (ACHN) was 100% and the growth at 1 µM (RXF 393) was 45%. It also gave a growth at 1 µM (SF-295) of 73%, a growth at 0.01 µM (BT-549 [1]) of 104% and a growth at 0.1 µM (OVCAR-4) of 103%. It also gave a growth at 100 µM (SNB-19) of 60%, a growth at 0.01 µM (NCI-H322M) of 97% and a growth at 0.01 µM (HL-60(TB) [2]) of 94%. For the same molecule, the growth at 1 µM (MDA-MB-435) was 92%, the growth at 100 µM (HL-60(TB) [3]) was -15% and the GI50 (MDA-MB-231 [4]; read-out: GI50) was 2530 nM. For the same molecule, the CC50 (MDA-MB-231 [4]; [10]) was over 100 µM, the TGI (MDA-MB-231 [4]; read-out: TGI) was 32.4 µM and the GI50 (MDA-MB-231 [4]; read-out: pGI50 (converted)) was 2820 nM. It also gave a CC50 (MDA-MB-231 [4]; [11]) of over 100 µM, a TGI (MDA-MB-231 [4]; read-out: pTGI (converted)) of 32.4 µM and a GI50 (CAKI-1; read-out: GI50) of 4.4 µM. It also gave a CC50 (CAKI-1; [10]) of over 100 µM, a TGI (CAKI-1; read-out: TGI) of over 100 µM and a GI50 (CAKI-1; read-out: pGI50 (converted)) of 4.37 µM. It also gave a CC50 (CAKI-1; [11]) of over 100 µM, a TGI (CAKI-1; read-out: pTGI (converted)) of over 100 µM and a GI50 (BT-549 [5]; read-out: GI50) of 5.9 µM. The CC50 (BT-549 [5]; [10]) was over 100 µM, the TGI (BT-549 [5]; read-out: TGI) was over 100 µM and the GI50 (BT-549 [5]; read-out: pGI50 (converted)) was 89.1 µM. The CC50 (BT-549 [5]; [11]) was over 100 µM, the TGI (BT-549 [5]; read-out: pTGI (converted)) was over 100 µM and the GI50 (NCI-H460; read-out: GI50) was 4.79 µM. The CC50 (NCI-H460; [10]) was over 100 µM, the TGI (NCI-H460; read-out: TGI) was over 100 µM and the GI50 (NCI-H460; read-out: pGI50 (converted)) was 4.79 µM. It also gave a CC50 (NCI-H460; [11]) of over 100 µM, a TGI (NCI-H460; read-out: pTGI (converted)) of over 100 µM and a growth at 1 µM (T47D) of 93%. For the same molecule, the GI50 (786-0 [6]; read-out: GI50) was 3.73 µM, the CC50 (786-0 [6]; [10]) was over 100 µM and the TGI (786-0 [6]; read-out: TGI) was 29.6 µM. It also gave a GI50 (786-0 [6]; read-out: pGI50 (converted)) of 3.24 µM, a CC50 (786-0 [6]; [11]) of over 100 µM and a TGI (786-0 [6]; read-out: pTGI (converted)) of 29.5 µM. For the same molecule, the growth at 0.1 µM (MDA-MB-468) was 92%, the growth at 0.1 µM (SW-620) was 101% and the GI50 (SN12C; read-out: GI50) was over 100 µM. For the same molecule, the LC50 (SN12C; read-out: LC50) was over 100 µM, the TGI (SN12C; read-out: TGI) was over 100 µM and the GI50 (SN12C; read-out: pGI50 (converted)) was over 100 µM. It also gave an LC50 (SN12C; read-out: pLC50 (converted)) of over 100 µM, a TGI (SN12C; read-out: pTGI (converted)) of over 100 µM and a growth at 0.1 µM (RPMI-8226) of 107%. It also gave a growth at 100 µM (MCF7) of 23%, a GI50 (OVCAR-5; read-out: GI50) of 3.25 µM and a CC50 (OVCAR-5; [10]) of over 100 µM. The TGI (OVCAR-5; read-out: TGI) was over 100 µM, the GI50 (OVCAR-5; read-out: pGI50 (converted)) was 32.4 µM and the CC50 (OVCAR-5; [11]) was over 100 µM. It also gave a TGI (OVCAR-5; read-out: pTGI (converted)) of over 100 µM, a growth at 0.1 µM (NCI-H226) of 98% and a GI50 (HL-60(TB) [7]; read-out: GI50) of 4.19 µM. It also gave an LC50 (HL-60(TB) [7]; read-out: LC50) of over 100 µM, a TGI (HL-60(TB) [7]; read-out: TGI) of 33.2 µM and a GI50 (HL-60(TB) [7]; read-out: pGI50 (converted)) of 4.17 µM. It also gave an LC50 (HL-60(TB) [7]; read-out: pLC50 (converted)) of over 100 µM, a TGI (HL-60(TB) [7]; read-out: pTGI (converted)) of 33.1 µM and a growth at 0.01 µM (786-0 [8]) of 96%. The growth at 0.1 µM (HCC 2998) was 94% and the growth at 100 µM (MDA-MB-231 [9]) was -10%.

From ChEMBL document CHEMBL4308841, “Synthesis, in vitro antiproliferative activity, and kinase inhibitory effects of pyrazole-containing diarylureas and diarylamides” (Eur J Med Chem, 2018)
